From patent US20130165426A1, “IMIDAZOPYRIDINE, IMIDAZOPYRIMIDINE AND IMIDAZOPYRAZINE DERIVATIVES AS MELANOCORTIN-4 RECEPTOR MODULATORS” (UNIVERSITÉ DE MONTRÉAL, priority 2010, published 2013)

molecular target: T1, wild-type human melanocortin 4 receptor (WT-hMC4R) (Homo sapiens, UniProt P32245); experiment: Cyclic AMP assay (HTRF), antagonist competition against NDP-α-MSH; format: cell-based; details: HEK293T cells stably expressing WT-hMC4R; inhibition of response to 4 nM NDP-α-MSH; cAMP
T1 construct: expressed in transfected cells
Experimental: The general procedures described above were used to prepare the examples described below. Reported HPLC retention time are for reverse-phase HPLC (Agilent, 1200 series) using the conditions reported above (See “General” section). Mass spectra were recorded on a 6210 G1969A LC/MSD TOF spectrometer from Agilent Technologies using the LC conditions reported above (See “General” section). IC50 values were obtained using the cAMP assay described below.
IC50 value is the half maximal concentration of the tested compound to inhibit half of the maximal response of the agonist NDP-α-MSH. It is a measurement of the antagonist compound potency.
Intracellular cyclic 3′-5′ adenosine monophosphate (cAMP) accumulation was measured using a competitive immunoassay based on HTRF (Homogeneous Time-Resolved Fluorescence) technology (cAMP dynamic-2, Cis-Bio).
HEK293T stable cell line expressing double-tagged WT-hMC4R construct were collected and washed in cAMP buffer (1×D-PBS pH 7.4, 0.1% glucose). 40,000 cells/well were then dispensed in 96-well plates in cAMP buffer [1×D-PBS, 1% BSA, 0.1% Glucose, 0.75 mM 3-isobutyl-1-methyl-xanthine (IBMX, Sigma)] and incubated either for antagonist competition assay: 1 hour at 37° C. with various concentrations of compound [0.01 nM-10 μM] followed by 30 min incubation at 37° C. with 4 nM of NDP-α-MSH (Sigma) or for agonist assay: 1 hour at 37° C. with various concentrations of compound [0.01 nM-10 μM]. 10,000 cells were transferred in 384-well plates, lysed and incubated with cAMP labeled with the dye d2 and anti-cAMP M-Antidody labeled with Cryptate following the manufacturer's protocol.
Reading of HTRF signal was performed on Artemis TR-FRET plate reader (Cosmo Bio).
All curve fitting was conducted using non-linear regression analyses from PRISM (version 4.0c, GraphPad Inc.) and the determination of Rmax and EC50 or IC50 parameters were obtained from sigmoidal dose-response phase (variable slope) equation.
A cDNA encoding a wild-type human MC4R with a 3 tandem copies of Hemaglutinine (HA) epitote sequence from UMR cDNA resource center was modified using known techniques in the art (e.g., PCR, cloning) to fused in frame at the C-terminal a venus-Yellow Fluorescent Protein (YFP) cDNA.
The resultant cDNA was then subcloned in eukaryotic expression vector, e.g. pcDNA 3.1(+) (Invitrogen).
The double tagged WT-hMC4R was transfected in HEK293T cells with lipofectamine (Invitrogen) following the manufacturer's instructions and permanently transfected clonal cell lines were selected by resistance to the neomycin analog G418.
HEK293T stable cell line expressing wild-type human melanocortin 4 receptor (WT-hMC4R) containing an N-terminal 3×HA epitope tag and an intracellular C-terminal venus-yellow fluorescent protein (v-YFP) were maintained at 37° C. in humidified air containing 5% CO2 in Dulbecoo's modified Eagle's medium (DMEM) supplemented with 10% fetal bovine serum (FBS), 100 U/ml penicillin/streptomycin (DMEM complete/10% FBS). Cells were generally at 70%-80% confluence on the day of assay.

T1 sequence (P32245 whole entry): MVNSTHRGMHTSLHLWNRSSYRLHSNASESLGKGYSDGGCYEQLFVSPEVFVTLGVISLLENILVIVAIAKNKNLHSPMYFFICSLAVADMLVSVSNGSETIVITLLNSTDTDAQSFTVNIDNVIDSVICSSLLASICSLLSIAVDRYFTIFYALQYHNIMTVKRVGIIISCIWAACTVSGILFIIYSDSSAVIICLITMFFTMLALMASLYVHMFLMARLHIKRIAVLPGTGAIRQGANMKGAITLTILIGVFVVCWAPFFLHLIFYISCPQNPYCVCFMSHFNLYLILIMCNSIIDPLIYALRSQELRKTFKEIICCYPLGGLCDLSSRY

Compound | IC50 [nM]
CCCCN(CCCC)C(=O)c1ccc2nc(Nc3ccc(OC)cc3)n(CCCN3CCCCC3)c2n1 [Cpd 1] | < 100
COc1ccc(Nc2nc3ccc(C(=O)N4CC(C)CC(C)C4)nc3n2CCCN2CCCCC2)cc1 (stereo not shown) [Cpd 2, (3,5-dimethylpiperidin-1-yl)(2-((4-methoxyphenyl)amino)-3-(3-(piperidin-1-yl)propyl)-3H-imidazo[4,5-b]pyridin-5-yl)methanone] | 1000 to 15000
CCCCN(CCCC)C(=O)c1ccc2nc(C)n(CCCN3CCCCC3)c2n1 [Cpd 3, N,N-dibutyl-2-methyl-3-(3-(piperidin-1-yl)propyl)-3H-imidazo[4,5-b]pyridine-5-carboxamide] | 1000 to 15000
CCCCN(CCCC)C(=O)c1ccc2nc(-c3cccc(C#N)c3)n(CCCN3CCCCC3)c2n1 [Cpd 4, N,N-dibutyl-2-(3-cyanophenyl)-3-(3-(piperidin-1-yl)propyl)-3H-imidazo[4,5-b]pyridine-5-carboxamide] | 1000 to 15000
CCCCN(CCCC)C(=O)c1ccc2nc(-c3csc4ccccc34)n(CCCN3CCCCC3)c2n1 [Cpd 5, 2-(benzo[b]thiophen-3-yl)-N,N-dibutyl-3-(3-(piperidin-1-yl)propyl)-3H-imidazo[4,5-b]pyridine-5-carboxamide] | 100 to 1000
COc1ccc(Nc2nc3ccc(-c4cc5ccccc5n4C(=O)OC(C)(C)C)nc3n2CCCN2CCCCC2)cc1 [Cpd 6, tert-butyl 2-(2-((4-methoxyphenyl)amino)-3-(3-(piperidin-1-yl)propyl)-3H-imidazo[4,5-b]pyridin-5-yl)-1H-indole-1-carboxylate] | 1000 to 15000
CCN(CCOC)C(=O)c1ccc2nc(Nc3ccc(OC)cc3)n(CCCN3CCCCC3)c2n1 [Cpd 7] | 1000 to 15000
CCCCN(CCCC)C(=O)c1ccc2nc(Nc3ccccc3)n(CCCN3CCCCC3)c2n1 [Cpd 8] | < 100
CCCCN(CCCC)C(=O)c1ccc2nc(NC(=O)c3ccccc3)n(CCCN3CCCCC3)c2n1 [Cpd 9] | 1000 to 15000
CCCCN(CCCC)C(=O)c1ccc2nc(NCc3ccccc3)n(CCCN3CCCCC3)c2n1 [Cpd 10] | 100 to 1000
CCCCN(CCCC)C(=O)c1ccc2nc(Nc3ccccc3Br)n(CCCN3CCCCC3)c2n1 [Cpd 11] | 1000 to 15000
COc1ccc(Nc2nc3ccc(C(=O)N(CC(C)C)CC(C)C)nc3n2CCCN2CCCCC2)cc1 [Cpd 12] | 100 to 1000
CCCN(CCC)C(=O)c1ccc2nc(Nc3ccc(OC)cc3)n(CCCN3CCCCC3)c2n1 [Cpd 13] | 100 to 1000
CCCCCN(CCCCC)C(=O)c1ccc2nc(Nc3ccc(OC)cc3)n(CCCN3CCCCC3)c2n1 [Cpd 14] | < 100
CCC(C)N(C(=O)c1ccc2nc(Nc3ccc(OC)cc3)n(CCCN3CCCCC3)c2n1)C(C)CC (stereo not shown) [Cpd 15] | 100 to 1000
COc1ccc(Nc2nc3ccc(C(=O)N(CCC(C)C)CCC(C)C)nc3n2CCCN2CCCCC2)cc1 [Cpd 16] | < 100
COCCN(CCOC)C(=O)c1ccc2nc(Nc3ccc(OC)cc3)n(CCCN3CCCCC3)c2n1 [Cpd 17] | 1000 to 15000
CCCCN(CCCC)C(=O)c1ccc2nc(Nc3ccc(OC)cc3)n(CCCN3CCCCC3C)c2n1 (stereo not shown) [Cpd 18] | < 100
COc1ccc(Nc2nc3ccc(C(=O)N4CC5CCC(CC5)C4)nc3n2CCCN2CCCCC2)cc1 [Cpd 19] | 1000 to 15000
CCCCN(CC#N)C(=O)c1ccc2nc(Nc3ccc(OC)cc3)n(CCCN3CCCCC3)c2n1 [Cpd 20] | 1000 to 15000

Compound | IC50 [nM]
COc1ccc(Nc2nc3ccc(C(=O)N4CCCCCC4)nc3n2CCCN2CCCCC2)cc1 [Cpd 21] | 1000 to 15000
CCC1CCC(C)N(C(=O)c2ccc3nc(Nc4ccc(OC)cc4)n(CCCN4CCCCC4)c3n2)C1 (stereo not shown) [Cpd 22] | 1000 to 15000
COc1ccc(Nc2nc3ccc(C(=O)N4CCCC5CCCCC54)nc3n2CCCN2CCCCC2)cc1 (stereo not shown) [Cpd 23] | 1000 to 15000
CCCCN(CCC)C(=O)c1ccc2nc(Nc3ccc(OC)cc3)n(CCCN3CCCCC3)c2n1 [Cpd 24] | 100 to 1000
CCCN(C(=O)c1ccc2nc(Nc3ccc(OC)cc3)n(CCCN3CCCCC3)c2n1)C(C)CC (stereo not shown) [Cpd 25] | 100 to 1000
CCCCN(CCCC)C(=O)c1ccc2nc(Nc3ccc(OC)cc3)n(C3CCN(Cc4ccccc4)CC3)c2n1 [Cpd 26] | 1000 to 15000
COc1ccc(Nc2nc3ccc(C(=O)N(CCC(C)C)CCC(C)C)nc3n2C2CCN(Cc3ccccc3)CC2)cc1 [Cpd 27] | 1000 to 15000
CCCCN(CCCC)Cc1ccc2nc(Nc3ccc(OC)cc3)n(CCCN3CCCCC3C)c2n1 (stereo not shown) [Cpd 28] | 1000 to 15000
CCCCN(CCCC)C(=O)c1ccc2nc(Nc3ccc(OC)cc3)n(CC(C)(C)CN(C)C)c2n1 [Cpd 29] | 1000 to 15000
COc1ccc(Nc2nc3ccc(C(=O)N(CCC4CC4)CCC4CC4)nc3n2CCCN2CCCCC2)cc1 [Cpd 30] | < 100
CCCCN(CCCC)C(=O)c1cc2c(cn1)nc(Nc1ccc(OC)cc1)n2CCCN1CCCCC1 [Cpd 31] | 100 to 1000
CCCCN(CCCC)C(=O)c1ccc2nc(Nc3ccc(C(C)=O)cc3)n(CCCN3CCCCC3)c2n1 [Cpd 32] | < 100
CCCCN(CCCC)C(=O)c1ccc2nc(Nc3ccc(CC)cc3)n(CCCN3CCCCC3)c2n1 [Cpd 33] | 100 to 1000
CCCCN(CCCC)C(=O)c1ccc2nc(NC(C)C)n(CCCN3CCCCC3)c2n1 [Cpd 34] | 1000 to 15000
CCCCN(CCCC)C(=O)c1ccc2nc(Nc3cccnc3)n(CCCN3CCCCC3)c2n1 [Cpd 35] | < 100
CCCCCN(CCCCC)C(=O)c1cc2c(cn1)nc(Nc1ccc(OC)cc1)n2CCCN1CCCCC1 [Cpd 36] | < 100
COc1ccc(Nc2nc3cnc(C(=O)N(CCC(C)C)CCC(C)C)cc3n2CCCN2CCCCC2)cc1 [Cpd 37] | < 100
CCCCN(CCCC)C(=O)c1cnc2nc(Nc3ccc(OC)cc3)n(CCCN3CCCCC3)c2c1 [Cpd 38] | 1000 to 15000
CCCCN(CCCC)C(=O)c1ccc2nc(NC(=O)OCC)n(CCCN3CCCCC3)c2n1 [Cpd 39] | 1000 to 15000
CCCCN(CCCC)C(=O)c1ccc2nc(N)n(CCCN3CCCCC3)c2n1 [Cpd 40] | 1000 to 15000

Compound | IC50 [nM]
C=C(C)CNc1nc2ccc(C(=O)N(CCCC)CCCC)nc2n1CCCN1CCCCC1 [Cpd 41] | 1000 to 15000
CCCCN(CCCC)C(=O)c1ccc2nc(-c3cc(F)ccc3Br)n(CCCN3CCCCC3)c2n1 [Cpd 42] | 1000 to 15000
CCCCN(CCCC)C(=O)c1ccc2nc(-c3ccc(Br)cc3)n(CCCN3CCCCC3)c2n1 [Cpd 43] | 1000 to 15000
CCCCN(CCCC)C(=O)c1ccc2nc(-c3cc(Br)ccc3OC)n(CCCN3CCCCC3)c2n1 [Cpd 44] | 100 to 1000
CCCCN(CCCC)C(=O)c1ccc2nc(Nc3cccc4ccccc34)n(CCCN3CCCCC3)c2n1 [Cpd 45] | 100 to 1000
CCCCN(CCCC)C(=O)c1ccc2nc(Nc3ccc(C)cc3)n(CCCN3CCCCC3)c2n1 [Cpd 46] | < 100
CCCCN(CCCC)C(=O)c1nc(O)c2nc(-c3ccc(OC)cc3)n(CCCN3CCCCC3)c2n1 [Cpd 47] | 100 to 1000
CCCCN(CCCC)C(=O)c1ccc2nc(Nc3ccc(C(=O)OC)cc3)n(CCCN3CCCCC3)c2n1 [Cpd 48] | < 100
CCCCN(CCCC)C(=O)c1ccc2nc(NC3CCCCC3)n(CCCN3CCCCC3)c2n1 [Cpd 49] | 100 to 1000
CCCCN(CCCC)C(=O)c1cnc2nc(Nc3ccc(OC)cc3)n(CCCN3CCCCC3)c2n1 [Cpd 50] | 100 to 1000
CCCCN(CCCC)C(=O)c1cc2c(cn1)nc(Nc1ccccc1)n2CCCN1CCCCC1 [Cpd 51] | 100 to 1000
CCCCN(CCCC)C(=O)c1cc2c(cn1)nc(NCc1ccccc1)n2CCCN1CCCCC1 [Cpd 52] | < 100
CCCCN(CCCC)C(=O)c1cc2c(cn1)nc(Nc1ccc(C)cc1)n2CCCN1CCCCC1 [Cpd 53] | 100 to 1000
COc1ccc(-c2nc3cnc(C(=O)N(CCC(C)C)CCC(C)C)nc3n2CCCN2CCCCC2)cc1 [Cpd 54] | 100 to 1000
CCCCN(CCCC)C(=O)c1ccc(Nc2nc3ccc(C(=O)N(CCCC)CCCC)nc3n2CCCN2CCCCC2)cc1 [Cpd 55] | 100 to 1000
CCCCN(CCCC)C(=O)c1ccc2nc(Nc3ccc(C(=O)N(C)C)cc3)n(CCCN3CCCCC3)c2n1 [Cpd 56] | 100 to 1000
CCCCN(CCCC)C(=O)c1ccc2nc(Nc3ccc(C(=O)N4CCCCC4)cc3)n(CCCN3CCCCC3)c2n1 [Cpd 57] | 100 to 1000
CCCCN(CCCC)C(=O)c1ccc2nc(Nc3ccc(C(=O)N4CCN(C)CC4)cc3)n(CCCN3CCCCC3)c2n1 [Cpd 58] | 100 to 1000
